Reference: patent US20110144014A1, “CYTOKINE RECEPTOR MODULATORS AND USES THEREOF” (CENTRE HOSPITALIER UNIVERSITAIRE SAINTE-JUSTINE, priority 2005, published 2011)
Where a SMILES comes first, the peptide text is derived from it. Where no end group is shown, it is not given here. [ ]: non-standard residue; d: D form.

Tests used:
IGF-1R [1] = target: T1, IGF-1R (Homo sapiens, UniProt P08069); assay: IGF-1 induced proliferation of MDA-MB-231 breast adenocarcinoma cells (3H-thymidine); format: cell-based; parameters: MDA-MB-231 breast adenocarcinoma cells; endogenous in cells; host or cells: MDA-MB-231; conditions: for EC50: read-out: EC50, in vitro cell proliferation assay; for Emax: MDA-MB-231, read-out: Emax, in vitro cell proliferation assay
Procedure: (§1) We also tested the effect IGF-1R antagonist peptides on IGF-1 induced proliferation in other cancer cell types (MCF-7 breast carcinoma cells, HepG2 hepatocarcinoma cells, and MDA-MB-231 breast adenocarcinoma cells). Different cancer cells were pre-incubated (45 min.) with different concentrations of peptides prior to stimulation with IGF-1 (50 ng/ml) (37° C.) for 24 hours; fetal calf serum was omitted 24 hours prior to stimulation with IGF-1 to avoid proliferative effects by other mitotic agents. ^3H-thymidine (1 μCi/ml) was then added for 24 hours, after which cells were washed three times with 5% cold TCA and lysed with 0.1N NaOH/0.1% Triton X-100. Radioactivity was measured with a scintillation counter. Experiments were repeated 3 times in duplicates (FIG. 15).
Target sequence in this assay (P08069 31-736 limits assumed): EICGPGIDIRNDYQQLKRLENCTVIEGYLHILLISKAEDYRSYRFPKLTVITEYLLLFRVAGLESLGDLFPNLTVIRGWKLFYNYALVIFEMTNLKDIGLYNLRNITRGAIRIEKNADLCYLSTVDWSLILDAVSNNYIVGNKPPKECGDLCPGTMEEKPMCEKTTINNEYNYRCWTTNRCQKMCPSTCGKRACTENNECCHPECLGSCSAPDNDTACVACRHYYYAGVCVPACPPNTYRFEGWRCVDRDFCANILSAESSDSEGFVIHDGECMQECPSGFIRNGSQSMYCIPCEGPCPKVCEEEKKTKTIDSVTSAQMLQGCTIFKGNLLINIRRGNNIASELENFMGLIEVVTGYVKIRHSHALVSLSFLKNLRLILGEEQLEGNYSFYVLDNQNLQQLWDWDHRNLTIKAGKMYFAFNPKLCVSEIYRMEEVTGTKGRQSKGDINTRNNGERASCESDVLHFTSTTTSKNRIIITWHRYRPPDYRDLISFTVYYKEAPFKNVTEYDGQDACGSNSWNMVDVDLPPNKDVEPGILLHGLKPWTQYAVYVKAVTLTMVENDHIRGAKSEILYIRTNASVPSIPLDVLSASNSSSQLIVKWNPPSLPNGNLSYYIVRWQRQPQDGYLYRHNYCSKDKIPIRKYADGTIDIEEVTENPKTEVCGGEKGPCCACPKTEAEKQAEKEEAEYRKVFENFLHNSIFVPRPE
Target sequence in this assay (P08069 741-1367 limits assumed): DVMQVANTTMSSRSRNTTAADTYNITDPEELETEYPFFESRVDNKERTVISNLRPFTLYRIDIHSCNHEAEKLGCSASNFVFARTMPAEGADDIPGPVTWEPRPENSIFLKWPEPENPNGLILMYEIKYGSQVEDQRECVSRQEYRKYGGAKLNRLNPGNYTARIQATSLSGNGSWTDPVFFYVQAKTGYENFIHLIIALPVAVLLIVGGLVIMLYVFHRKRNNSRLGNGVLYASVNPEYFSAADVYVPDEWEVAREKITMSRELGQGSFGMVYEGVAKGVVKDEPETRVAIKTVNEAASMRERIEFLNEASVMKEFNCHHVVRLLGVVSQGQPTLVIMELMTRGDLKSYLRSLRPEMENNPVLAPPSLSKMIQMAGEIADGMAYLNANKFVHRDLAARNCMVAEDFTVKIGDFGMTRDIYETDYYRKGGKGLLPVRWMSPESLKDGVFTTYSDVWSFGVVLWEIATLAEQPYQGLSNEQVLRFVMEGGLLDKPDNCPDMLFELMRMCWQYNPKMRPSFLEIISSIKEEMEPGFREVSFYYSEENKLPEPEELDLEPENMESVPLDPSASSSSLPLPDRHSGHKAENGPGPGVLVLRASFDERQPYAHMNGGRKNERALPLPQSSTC

IGF-1R [2] = target: T1, IGF-1R; assay: IGF-1 induced proliferation of MCF-7 breast carcinoma cells (3H-thymidine); format: cell-based; parameters: MCF-7 breast carcinoma cells; endogenous in cells; host or cells: MCF-7; conditions: for Emax / inhibition: MCF7; for inhibition: read-out: efficacy, inhibition of MCF-7 proliferation
Procedure: as §1, with “15). […]” for “15).”
Target sequence in this assay (P08069 31-736 limits assumed): as the sequence (P08069 31-736 limits assumed) above
Target sequence in this assay (P08069 741-1367 limits assumed): as the sequence (P08069 741-1367 limits assumed) above

IGF-1R [3] = target: T1, IGF-1R; assay: IGF-1 induced proliferation of A549 carcinoma cells (3H-thymidine); format: cell-based; parameters: endogenous in cells; host or cells: A549
Procedure: The proliferation induced by IGF-1 was measured in A549 carcinoma cells in the presence of peptides APG201; APG202 and APG204 and of IGF-1 (10 ng/ml-FIG. 8A) and (1 ng/ml-FIG. 8B) pursuant to the incorporated tritiated thymidine method. The cells were preincubated at 37° C. with the different peptides at different concentrations, namely 10^−7, 10^−6 and 10^−5M. The cells were then incubated with IGF-1 (10 ng/ml or 1 ng/ml) for 24 hours and contacted with ^3H-Thymidine for 24 hours, washed, and lysed. Radioactivity levels were measured with a scintillation counter.
Target sequence in this assay (P08069 31-736 limits assumed): as the sequence (P08069 31-736 limits assumed) above
Target sequence in this assay (P08069 741-1367 limits assumed): as the sequence (P08069 741-1367 limits assumed) above

VEGFR2 (Flk-1) [4] = assay: VEGF induced proliferation of microvascular endothelial cells (3H-thymidine); format: cell-based, porcine; conditions: VEGF 2 ng/ml
Procedure: (§2) To determine the efficient and non-cytotoxic concentration of VEGF to use in the assay, a dose-response curve of VEGF was generated in two types of cells, namely microvascular endothelial cells and pulmonary artery endothelial cells (PAEC) that had been transfected with the Flk-1 gene. The proliferation was then measured in those two types of cells in the presence of peptides 2.1, 2.2 and 2.3 and of VEGF (2 ng/ml) pursuant to the incorporated tritiated thymidine method. The cells were preincubated at 37° C. with the different peptides at different concentrations. They were incubated with VEGF (2 ng/ml) for 24 hours. The cells were contacted with ^3H-Thymidine for 24 hours, washed and lysed. The radioactivity was measured with a scintillation counter.

VEGFR2 (Flk-1) [5] = target: T2, VEGFR2 (Flk-1) (Homo sapiens, UniProt P35968); assay: VEGF induced proliferation of PAEC transfected with the Flk-1 gene (3H-thymidine); format: cell-based; conditions: VEGF 2 ng/ml
T2 construct: expressed in transfected cells; host or cells: pulmonary artery endothelial cells (PAEC)
Procedure: as §2

[6] = test system: neovascularization in rat retinas; assay: Ischemic retinopathy model; format: in vivo; conditions: rat pups, 80% O2 then normoxia; intravitreal, 10 μM final
Procedure: The efficiency of the selected peptides was verified in vivo in a ischemic retinopathy model, a phenomena highly dependent on VEGF activation. Rat pups were exposed to 80% O2 followed by a period of normoxia (21% O2). The peptides were injected at a final concentration of 10 μM in the vitreous body. The retinas were then retrieved, colored with the ADPase method and mounted on slides. Photographs of the retinas were taken with a microscope linked to a computer and the vascular density was evaluated with the Imagepro software.

IGF-1R [7] = target: T3, IGF-1R (Rattus norvegicus, UniProt P24062); assay: Ex vivo IGF-1-induced vasorelaxation of rat aorta; conditions: IGF-1 25 ng/ml; phenylephrine pre-constriction; read-out: Emax, inhibition of ex vivo IGF-1-induced vasorelaxation of rat aorta
T3 construct: from tissue; host or cells: aorta
Procedure: Aortas were first incubated with different concentrations of peptides and phenylephrine to induce aorta constriction. IGF-1 (25 ng/ml) was then added to induce vasorelaxation. The results are expressed relative to a control aorta not incubated with the peptides. Vascular diameter was measured using a digital image analyzer. Vascular diameter was recorded before and after topical application of pre-constricting agent. After stabilization of the preparation, the ligand (IGF-1, 25 ng/ml) was added until stable vasodilation was detected. Peptides were subsequently added at different concentrations from 10^−8 to 10^−6 M. Reversal of vasodilatation was visualized and measured as described, for example, by Hou et al. (Am. J. Physiol. Regul. Integr. Comp. Physiol. 284:R928-R935 (2003)), Hou et al. (Stroke 31:516-524; discussion 525 (2000)), and Hou et al. (Am. J. Physiol. Regul. Integr. Comp. Physiol. 281:R391-R400 (2001)). Triplicate measurements were conducted on 2 animals.

IGF-1R [8] = target: T1, IGF-1R; assay: IGF-1-induced proliferation of NIH3T3 cells transfected with human IGF-1R cDNA (3H-thymidine); format: cell-based; parameters: expressed in transfected cells; host or cells: NIH3T3; conditions: NIH3T3-IGF-1R cells; IGF-1 50 ng/ml
Procedure: Derivatives of APG-203 and APG-206 peptides were truncated to determine peptide regions important for activity. Peptides were assayed for efficacy and potency with an ^3H-thymidine incorporation assay. In short, the ^3H-thymidine incorporation proliferation assay was performed in NIH3T3 cells transfected with human IGF-1R cDNA in presence of IGF-1 50 ng/ml and different concentrations of peptides.
Target sequence in this assay (P08069 31-1367): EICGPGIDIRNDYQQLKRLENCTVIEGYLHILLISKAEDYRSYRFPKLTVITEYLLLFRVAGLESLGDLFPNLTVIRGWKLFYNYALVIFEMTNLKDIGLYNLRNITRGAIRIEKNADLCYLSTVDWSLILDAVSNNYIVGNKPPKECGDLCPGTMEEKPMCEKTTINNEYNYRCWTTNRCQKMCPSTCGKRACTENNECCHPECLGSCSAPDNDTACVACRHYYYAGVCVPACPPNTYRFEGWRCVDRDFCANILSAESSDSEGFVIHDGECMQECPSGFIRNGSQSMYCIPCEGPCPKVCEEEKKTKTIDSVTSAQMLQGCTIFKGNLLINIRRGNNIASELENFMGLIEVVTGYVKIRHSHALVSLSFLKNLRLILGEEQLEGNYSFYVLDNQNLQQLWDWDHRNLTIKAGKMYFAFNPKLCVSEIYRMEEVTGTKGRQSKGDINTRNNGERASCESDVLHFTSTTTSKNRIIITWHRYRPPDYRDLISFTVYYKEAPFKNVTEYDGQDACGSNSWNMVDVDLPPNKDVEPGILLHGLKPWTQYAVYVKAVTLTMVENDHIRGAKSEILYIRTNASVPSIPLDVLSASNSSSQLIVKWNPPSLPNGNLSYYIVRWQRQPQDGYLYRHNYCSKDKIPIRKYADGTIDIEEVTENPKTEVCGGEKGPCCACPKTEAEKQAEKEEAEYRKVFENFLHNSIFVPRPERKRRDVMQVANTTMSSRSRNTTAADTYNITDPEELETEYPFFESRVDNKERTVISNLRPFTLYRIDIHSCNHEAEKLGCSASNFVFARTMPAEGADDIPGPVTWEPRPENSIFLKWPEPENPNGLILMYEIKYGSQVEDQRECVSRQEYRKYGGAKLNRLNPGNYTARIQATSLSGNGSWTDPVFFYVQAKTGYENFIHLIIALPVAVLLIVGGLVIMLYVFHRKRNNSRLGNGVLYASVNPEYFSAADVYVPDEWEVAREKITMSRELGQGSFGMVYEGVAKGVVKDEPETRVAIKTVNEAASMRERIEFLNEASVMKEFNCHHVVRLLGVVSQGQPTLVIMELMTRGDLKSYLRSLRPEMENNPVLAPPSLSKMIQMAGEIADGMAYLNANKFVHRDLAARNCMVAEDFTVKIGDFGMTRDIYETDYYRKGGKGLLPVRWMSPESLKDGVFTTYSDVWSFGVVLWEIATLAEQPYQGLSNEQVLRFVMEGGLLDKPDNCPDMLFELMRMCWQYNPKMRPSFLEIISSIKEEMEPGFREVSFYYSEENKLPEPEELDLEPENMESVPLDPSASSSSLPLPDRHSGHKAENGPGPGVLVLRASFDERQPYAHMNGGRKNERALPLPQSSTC

IGF-1R [9] = target: T1, IGF-1R; assay: IGF-1-induced tyrosine autophosphorylation of IGF-1R (Western Blot); format: cell-based; conditions: peptides 10^−6M, 45 min; IGF-1 50 ng/ml; read-out: inhibition of IGF-1-induced phosphorylation
Procedure: Cells were incubated with anti-IGF-1R peptides (10^−6M) for 45 minutes and with IGF-1 at 50 ng/ml for either 15 minutes or 5 minutes. Western Blots (phosphorylated tyrosine antibody and IGF-1R antibody) were performed in non-denaturing conditions on total cell lysates (FIG. 17).
Target sequence in this assay (P08069 31-1367, species assumed): as the sequence (P08069 31-1367) above

IGF-1R [10] = target: T1, IGF-1R; assay: IGF-1 induced proliferation of HepG2 hepatocarcinoma cells (3H-thymidine); format: cell-based; parameters: HepG2 hepatocarcinoma cells; endogenous in cells; host or cells: HepG2; conditions: for Emax: read-out: Emax, in vitro cell proliferation assay
Procedure: as §1
Target sequence in this assay (P08069 31-736 limits assumed): as the sequence (P08069 31-736 limits assumed) above
Target sequence in this assay (P08069 741-1367 limits assumed): as the sequence (P08069 741-1367 limits assumed) above

[11] = MCF-7, IGF-1 50 ng/ml, read-out: Emax, in vitro cell proliferation assay
[12] = A549, IGF-1 10 ng/ml or 1 ng/ml
[13] = MCF-7 (breast cancer) cells, Table 5, read-out: Emax

T3 sequence (P24062 31-1370): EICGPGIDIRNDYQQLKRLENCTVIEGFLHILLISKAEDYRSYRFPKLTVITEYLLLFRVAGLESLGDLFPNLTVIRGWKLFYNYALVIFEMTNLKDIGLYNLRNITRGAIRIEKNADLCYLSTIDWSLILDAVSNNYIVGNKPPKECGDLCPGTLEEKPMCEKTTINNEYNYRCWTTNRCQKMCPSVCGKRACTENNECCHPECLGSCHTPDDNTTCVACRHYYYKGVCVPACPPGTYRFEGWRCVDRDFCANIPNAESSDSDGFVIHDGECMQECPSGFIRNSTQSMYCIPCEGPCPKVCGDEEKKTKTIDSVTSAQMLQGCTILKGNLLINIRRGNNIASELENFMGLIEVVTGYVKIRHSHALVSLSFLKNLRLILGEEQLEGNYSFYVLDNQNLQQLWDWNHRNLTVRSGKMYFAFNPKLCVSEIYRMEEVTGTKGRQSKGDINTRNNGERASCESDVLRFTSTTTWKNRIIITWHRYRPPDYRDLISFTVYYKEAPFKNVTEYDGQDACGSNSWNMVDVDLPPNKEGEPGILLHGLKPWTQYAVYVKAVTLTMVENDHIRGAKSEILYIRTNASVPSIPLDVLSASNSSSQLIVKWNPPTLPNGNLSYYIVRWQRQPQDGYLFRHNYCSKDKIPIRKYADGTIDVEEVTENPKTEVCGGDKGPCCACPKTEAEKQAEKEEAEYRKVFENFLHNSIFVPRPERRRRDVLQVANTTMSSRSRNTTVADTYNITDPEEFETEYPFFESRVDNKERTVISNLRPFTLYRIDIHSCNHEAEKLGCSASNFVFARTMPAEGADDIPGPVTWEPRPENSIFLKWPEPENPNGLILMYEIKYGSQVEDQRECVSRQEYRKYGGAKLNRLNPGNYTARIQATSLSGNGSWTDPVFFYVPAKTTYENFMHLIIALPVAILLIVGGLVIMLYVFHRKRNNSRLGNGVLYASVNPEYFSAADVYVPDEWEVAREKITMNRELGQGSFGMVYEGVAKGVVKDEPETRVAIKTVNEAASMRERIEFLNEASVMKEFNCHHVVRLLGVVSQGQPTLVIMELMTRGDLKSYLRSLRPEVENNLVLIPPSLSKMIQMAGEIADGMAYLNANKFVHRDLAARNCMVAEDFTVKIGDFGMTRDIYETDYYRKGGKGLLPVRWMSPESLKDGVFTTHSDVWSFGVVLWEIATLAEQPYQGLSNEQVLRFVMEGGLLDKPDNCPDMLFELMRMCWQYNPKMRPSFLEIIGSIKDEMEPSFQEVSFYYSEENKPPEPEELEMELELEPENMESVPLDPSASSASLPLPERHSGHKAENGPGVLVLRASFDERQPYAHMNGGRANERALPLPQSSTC

| Compound | Emax (IGF-1R [1]; MB-MDA-231, IGF-1 50 ng/ml) [%] | Emax (IGF-1R [2]; [11]) [%] | inhibition (IGF-1R [2]; IGF-1 50 ng/ml) [%] | Emax (IGF-1R [7]) [%] | Emax (IGF-1R [8]) [%] | also measured |
| --- | --- | --- | --- | --- | --- | --- |
| CC(C)C[C@@H](NC(=O)[C@H](N)CO)C(=O)N[C@H](Cc1ccccc1)C(=O)N[C@@H](C(=O)N1CCC[C@@H]1C(=O)N[C@H](CCCNC(=N)N)C(=O)N1CCC[C@@H]1C(=O)N[C@H](CCC(=O)O)C(=O)N[C@H](CCCNC(=N)N)C(=O)N[C@H](CCCCN)C(=O)O)C(C)C [APG-201] (H-[dS][dL][dF][dV][dP][dR][dP][dE][dR][dK]-OH; N-terminus and C-terminus assumed) | 100 | 20 | – | – | – | potency in MDA-MB-231 (IGF-1R [1]; ER insensitive cells): nanomolar potencies; EC50 (IGF-1R [1]; MB-MDA-231, IGF-1 50 ng/ml): 0.0001 µM; EC50 (IGF-1R [3]): 1 µM; IGF-1 induced proliferation (IGF-1R [3]; [12]): completely abrogated |
| CC(C)C[C@@H](NC(=O)[C@@H](CCCNC(=N)N)NC(=O)[C@H](NC(=O)[C@@H](CCCNC(=N)N)NC(=O)[C@@H](CCC(=O)O)NC(=O)CNC(=O)[C@H](NC(=O)[C@H](NC(=O)[C@@H](C)NC(=O)[C@H](N)CCC(=O)O)[C@H](C)O)C(C)C)C(C)C)C(=O)O [Peptide 2.2] (H-[dE][dA][dT][dV]G[dE][dR][dV][dR][dL]-OH; N-terminus and C-terminus assumed) | – | – | – | – | – | VEGF induced proliferation (VEGFR2 (Flk-1) [4]): completely abrogated; EC50 (VEGFR2 (Flk-1) [5]): 9 µM; induced neovascularization [6]: most effective inhibitor of neovascularization |
| ERTVLSNL [APG-206.7] | – | – | – | – | 100 | Emax (IGF-1R [2]; [13]): 90% |
| KERTVLS [APG-206.5, KERTVLS] | – | – | – | – | 75 | Emax (IGF-1R [2]; [13]): 100% |
| TVLSNL [APG-206.9, TVLSNL] | – | – | – | – | 90 | IC50 (IGF-1R [8]): 0.02 µM |

Second part, led by results:

| Emax (IGF-1R [1]; MB-MDA-231, IGF-1 50 ng/ml) [%] | Emax (IGF-1R [2]; [11]) [%] | inhibition (IGF-1R [2]; IGF-1 50 ng/ml) [%] | Emax (IGF-1R [7]) [%] | Emax (IGF-1R [8]) [%] | Compound | also measured |
| --- | --- | --- | --- | --- | --- | --- |
| – | 20 | – | – | – | CC(C)C[C@@H](NC(=O)[C@H](NC(=O)[C@@H](CC(=O)O)NC(=O)[C@@H](CO)NC(=O)[C@H](N)CCC(=O)O)C(C)C)C(=O)N[C@H](Cc1c[nH]cn1)C(=O)N[C@H](Cc1ccccc1)C(=O)N[C@@H](C(=O)N[C@H](CO)C(=O)N[C@@H](C(=O)O)[C@H](C)O)[C@H](C)O [APG-202] (H-[dE][dS][dD][dV][dL][dH][dF][dT][dS][dT]-OH; N-terminus and C-terminus assumed) | EC50, in vitro cell proliferation assay (IGF-1R [1]; MB-MDA-231, IGF-1 50 ng/ml): Not active; IGF-1 induced proliferation (IGF-1R [3]; [12]): completely abrogated; EC50 (IGF-1R [3]; A549, IGF-1 10 ng/ml or 1 ng/ml, read-out: EC50, IGF-1 induced proliferation): 0.01 µM |
| 100 | 60 | ≤ 90 | 25 | – | ENFLHLLLA [APG-205] | – |
| 100 | 90 | ≤ 90 | 25 | – | IRKYADGTI [APG-204] | inhibition at 1 µM (IGF-1R [9]): 30% |
| – | 60 | ≤ 90 | 75 | – | KERTVISNLR [APG-206] | Emax (IGF-1R [10]; HepG2, IGF-1 50 ng/ml): 100%; inhibition at 1 µM (IGF-1R [9]): > 70% |
| 100 | 45 | ≤ 90 | 50 | – | RTNASVPSI [APG-203] | EC50 (IGF-1R [1]; MB-MDA-231, IGF-1 50 ng/ml): 0.0001 µM; efficacy, inhibition of HepG2 proliferation (IGF-1R [10]): 50%; EC50 (IGF-1R [10]; HepG2, IGF-1 50 ng/ml, read-out: EC50, in vitro cell proliferation assay): < 0.0001 µM; Emax (IGF-1R [10]; HepG2, IGF-1 50 ng/ml): 100%; EC50 (IGF-1R [2]; IGF-1 50 ng/ml, read-out: potency, inhibition of MCF-7 proliferation): 0.0001 to 0.06 µM |
